A value given as a limit tells only on which side of the number the result lay.

In patent US20100120789A1, “Compound” (priority 2005, published 2010) one finds inhibition data, which are given here for 40 molecules.

In experiment [1] the target is T1, Human 11β-HSD1 (Homo sapiens, UniProt P28845). Put plainly: 11β-HSD1 HEK assay (whole HEK 293 cells stably transfected with HSD11B1, SPA). The settings on record: HEK293. Also on record: expressed in transfected cells; host or cells: HEK 293. In kind it is cell-based.
In experiment [2] the target is T1, Human 11β-HSD1. Put plainly: 11β-HSD1 HTRF assay (human liver microsome fractions, cortisol by HTRF). The note with it: 10 μM compound; human liver microsomes. The experiment is classed as biochemical. The procedure: 11β-HSD1 HTRF Assay Protocol
The 11β-HSD Type 1 assay was carried out at room temperature in 96 well microtitre plates in a total volume of 40 μl. Assay buffer contained 30 mM Tris.HCl, 1 mM EDTA, pH 7.2. Inhibitor compounds were tested at varying concentrations at a final Dimethyl Sulphoxide concentration of 1%. Compounds were usually tested at 10 μM. The substrate mixture contained cortisone, NADPH and glucose-6-phosphate at final concentrations of 1 μM, 180 μM and 1 mM respectively. Assays were started by the addition of 10p1 human liver microsome fractions, 20 mg per ml protein, containing 11β-HSD Type 1, diluted 1 to 40 prior to use. Following mixing microtitre plates were shaken for 30 minutes. Reactions were stopped by the addition of 10 μl 1 mM Glyccheritinnic acid solution. Production of Cortisol was measured by Homogenous Time Resolved Fluorescence using a cortisol assay kit; Cisbio International Cortisol HTRF kit (62CORPEB), following the manufacturer's protocol.

The target in experiment [3] is T1, Human 11β-HSD1. In words: 11β-HSD1 HEK assay (whole HEK 293 cells stably transfected with HSD11B1, SPA). More on the design: expressed in transfected cells; host or cells: HEK 293. In kind it is cell-based. The settings on record: HEK293, read-out: % INHIBITION of Human 11 β-HSD1 at 10 μM (HEK). The protocol: 11β-HSD1 HEK Assay Protocol (Cell Based Assay)
11β-HSD1 activity is measured in whole HEK 293 cells stably transfected with the HSD11B1 gene. Cells are incubated in 96-well microplates in the presence of tritiated substrate. Enzyme activity is determined by measuring the amount of tritated product by scintillation proximity assay (SPA). Assay plates contain internal high and low controls to allow calculation of percentage inhibition.
2. When the cells are 80% confluent the medium is removed from each well. 100 μl fresh, serum-free, medium containing ^3H-cortisone and test compound in 1% DMSO is added to each well*. Control wells are also dispensed.
3. The plate is incubated at […] for the required time period.
4. 50 μl of media is removed from each well and transferred to a microplate containing 100 μl of a pre-incubated mixture of anti-cortisol antibody and SPA bead. The mixture is incubated with gentle shaking until equilibrium is reached, before transferring to a scintillation counter to establish the enzyme activity in each sample.
10 μl of compound is dispensed into each well of a 96-well microplate in 10% DMSO at 100 μM concentration. 90 μl media containing ^3H-cortisone is added to each well. The compound/media/substrate mixture is then transferred to the assay plate containing the cells.

T1 sequence (P28845 whole entry): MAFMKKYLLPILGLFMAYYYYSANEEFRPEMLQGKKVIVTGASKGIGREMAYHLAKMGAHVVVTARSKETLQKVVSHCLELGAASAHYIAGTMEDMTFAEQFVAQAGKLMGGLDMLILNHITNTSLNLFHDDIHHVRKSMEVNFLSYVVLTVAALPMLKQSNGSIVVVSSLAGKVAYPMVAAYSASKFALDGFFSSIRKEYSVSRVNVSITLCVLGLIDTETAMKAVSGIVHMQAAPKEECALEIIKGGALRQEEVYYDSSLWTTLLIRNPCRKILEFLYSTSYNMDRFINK

As for `NC(=O)c1ccc(COCC(=O)C23CC4CC(CC(C4)C2)C3)cc1` [Compound 17], the inhibition (as a rule, the share of the control response that was lost under treatment) at 1 µM at Human 11β-HSD1 [1] stood at 63%.

For `Cc1nc2cc(NCC(=O)C34CC5CC(CC(C5)C3)C4)ccc2s1` [compound 1487], the inhibition at 10 µM at Human 11β-HSD1 [2] and at Human 11β-HSD1 [3] was greater than 60% in each case.

Take `O=S(=O)(Cc1ccc(Cl)cc1)NC12CC3CC(CC(C3)C1)C2` [compound 1499]: the inhibition at 10 µM on Human 11β-HSD1 [2] was 20 to 60%; on Human 11β-HSD1 [3] it was less than 20%.

Regarding `O=S(=O)(Cc1cccc(Cl)c1)NC12CC3CC(CC(C3)C1)C2` [compound 1500], the inhibition at 10 µM on Human 11β-HSD1 [2] was 20 to 60%; at Human 11β-HSD1 [3] it was less than 20%.

Consider `O=C(CNc1ccc(Cl)cc1)C12CC3CC(CC(C3)C1)C2` [compound 1535], for which the inhibition at 10 µM against Human 11β-HSD1 [2] and at Human 11β-HSD1 [3] was greater than 60% in each case.

As for `Cc1ccc(SCC(=O)C23CC4CC(CC(C4)C2)C3)cc1` [compound 1537], the inhibition at 10 µM against Human 11β-HSD1 [2] and on Human 11β-HSD1 [3] was greater than 60% throughout.

Regarding `O=C(CSc1cc(Cl)ccc1Cl)C12CC3CC(CC(C3)C1)C2` [compound 1538], the inhibition at 10 µM against Human 11β-HSD1 [2] and at Human 11β-HSD1 [3] was greater than 60% in each case.

Consider `O=C(CS(=O)(=O)c1ccc(Cl)cc1)C12CC3CC(CC(C3)C1)C2` [compound 1539], for which the inhibition at 10 µM is greater than 60% against Human 11β-HSD1 [2] and 20 to 60% at Human 11β-HSD1 [3].

In the case of `O=C(NCc1ccccn1)C12CC3CC(CC(C3)C1)C2` [compound 1540], the inhibition at 10 µM on Human 11β-HSD1 [2] was greater than 60%; on Human 11β-HSD1 [3] it was 20 to 60%.

For the molecule `O=C(NCCc1ccccn1)C12CC3CC(CC(C3)C1)C2` [compound 1541], the inhibition at 10 µM at Human 11β-HSD1 [2] and on Human 11β-HSD1 [3] was greater than 60% throughout.

With `O=C(NCc1cccnc1)C12CC3CC(CC(C3)C1)C2` [compound 1542], the inhibition at 10 µM at Human 11β-HSD1 [2] and on Human 11β-HSD1 [3] was greater than 60% in each case.

As to `O=C(NCCc1cccnc1)C12CC3CC(CC(C3)C1)C2` [compound 1543], the figures for the inhibition at 10 µM on Human 11β-HSD1 [2] and at Human 11β-HSD1 [3] were greater than 60% and less than 20%, respectively.

With `COc1ccc(NC(=O)C23CC4CC(CC(C4)C2)C3)cn1` [compound 1544], the values for the inhibition at 10 µM on Human 11β-HSD1 [2] and on Human 11β-HSD1 [3] were greater than 60% and 20 to 60%, respectively.

For the molecule `Cc1cnc(CNC(=O)C23CC4CC(CC(C4)C2)C3)cn1` [compound 1545], the results for the inhibition at 10 µM against Human 11β-HSD1 [2] and on Human 11β-HSD1 [3] were greater than 60% and 20 to 60%, respectively.

As to `Cc1ccc(S(=O)(=O)CC(=O)C23CC4CC(CC(C4)C2)C3)cc1` [compound 1562], the inhibition at 10 µM against Human 11β-HSD1 [2] and at Human 11β-HSD1 [3] was greater than 60% each time.

In the case of `O=C(C[S+]([O-])c1cc(Cl)ccc1Cl)C12CC3CC(CC(C3)C1)C2` (stereo not shown) [compound 1563], the inhibition at 10 µM at Human 11β-HSD1 [2] and on Human 11β-HSD1 [3] was greater than 60% each time.

Turning to `O=C(CC12CC3CC(CC(C3)C1)C2)NCc1cccs1` [compound 1564], the inhibition at 10 µM on Human 11β-HSD1 [2] and on Human 11β-HSD1 [3] was greater than 60% each time.

With `O=C(CC12CC3CC(CC(C3)C1)C2)NCc1ccccn1` [compound 1565], the inhibition at 10 µM is greater than 60% against Human 11β-HSD1 [2] and 20 to 60% on Human 11β-HSD1 [3].

As to `O=C(COc1ccc(-c2ccccc2)cc1)C12CC3CC(CC(C3)C1)C2` [compound 1567], the inhibition at 10 µM against Human 11β-HSD1 [2] and at Human 11β-HSD1 [3] was greater than 60% in each case.

Turning to `COc1ccc(OCC(=O)C23CC4CC(CC(C4)C2)C3)cc1OC` [compound 1568], the inhibition at 10 µM at Human 11β-HSD1 [2] and on Human 11β-HSD1 [3] was greater than 60% throughout.

Consider `CC(=O)Nc1ccc(OCC(=O)C23CC4CC(CC(C4)C2)C3)cc1` [compound 1569], for which the inhibition at 10 µM against Human 11β-HSD1 [2] and on Human 11β-HSD1 [3] was greater than 60% throughout.

As to `O=C(CC12CC3CC(CC(C3)C1)C2)NCCc1cccs1` [compound 1570], the inhibition at 10 µM on Human 11β-HSD1 [2] and at Human 11β-HSD1 [3] was greater than 60% in each case.

`Cc1nc2c(NC(=O)CC34CC5CC(CC(C5)C3)C4)c(C)ccc2s1` [compound 1572]: the inhibition at 10 µM against Human 11β-HSD1 [2] was greater than 60%; on Human 11β-HSD1 [3], less than 20%.

Regarding `O=S(=O)(NC1C2CC3CC(C2)CC1C3)c1cccs1` (stereo not shown) [compound 1574], the inhibition at 10 µM on Human 11β-HSD1 [2] is greater than 60%; at Human 11β-HSD1 [3], 20 to 60%.

Turning to `O=S(=O)(NCC12CC3CC(CC(C3)C1)C2)c1cccs1` [compound 1575], the inhibition at 10 µM is greater than 60% against Human 11β-HSD1 [2] and less than 20% on Human 11β-HSD1 [3].

For the molecule `Cn1cnc(CNC(=O)C23CC4CC(CC(C4)C2)C3)c1` [compound 1577], the inhibition at 10 µM against Human 11β-HSD1 [2] and at Human 11β-HSD1 [3] was greater than 60% in each case.

As to `Cn1cccc1CNC(=O)C12CC3CC(CC(C3)C1)C2` [compound 1578], the inhibition at 10 µM against Human 11β-HSD1 [2] and at Human 11β-HSD1 [3] was greater than 60% each time.

Consider `O=C(NCc1ccco1)C12CC3CC(CC(C3)C1)C2` [compound 1579], for which the inhibition at 10 µM on Human 11β-HSD1 [2] and on Human 11β-HSD1 [3] was greater than 60% in each case.

For `O=C(NCCCn1ccnc1)C12CC3CC(CC(C3)C1)C2` [compound 1580], the inhibition at 10 µM at Human 11β-HSD1 [2] and on Human 11β-HSD1 [3] was 20 to 60% in each case.

Turning to `O=C(NCCc1c[nH]c2ccccc12)C12CC3CC(CC(C3)C1)C2` [compound 1581], the inhibition at 10 µM against Human 11β-HSD1 [2] and on Human 11β-HSD1 [3] was greater than 60% in each case.

As for `CN1CCCC1CCNC(=O)C12CC3CC(CC(C3)C1)C2` (stereo not shown) [compound 1597], the inhibition at 10 µM is greater than 60% against Human 11β-HSD1 [2] and less than 20% at Human 11β-HSD1 [3].

For the molecule `O=C(NCCN1CCCCC1)C12CC3CC(CC(C3)C1)C2` [compound 1598], the inhibition at 10 µM on Human 11β-HSD1 [2] and on Human 11β-HSD1 [3] was greater than 60% throughout.

Take `Cc1ccc(-c2noc(C34CC5CC(CC(C5)C3)C4)n2)cc1` [compound 1599]: the inhibition at 10 µM at Human 11β-HSD1 [2] and on Human 11β-HSD1 [3] was 20 to 60% in each case.

Regarding `O=C(COc1ccc(Cl)cc1)C12CC3CC(CC(C3)C1)C2` [compound 1610], the inhibition at 10 µM against Human 11β-HSD1 [2] and on Human 11β-HSD1 [3] was greater than 60% each time.

Regarding `O=C(COc1cc(Cl)ccc1Cl)C12CC3CC(CC(C3)C1)C2` [compound 1618], the inhibition at 10 µM on Human 11β-HSD1 [2] and on Human 11β-HSD1 [3] was greater than 60% in each case.

For `Cc1ccc(OCC(=O)C23CC4CC(CC(C4)C2)C3)cc1` [compound 1619], the inhibition at 10 µM against Human 11β-HSD1 [2] and on Human 11β-HSD1 [3] was greater than 60% throughout.

On to `O=C(CSCc1ccc(Cl)cc1)C12CC3CC(CC(C3)C1)C2` [compound 1621], for which the inhibition at 10 µM at Human 11β-HSD1 [2] and on Human 11β-HSD1 [3] was greater than 60% each time.

For the molecule `O=C(COCc1ccc(Cl)cc1)C12CC3CC(CC(C3)C1)C2` [compound 1626], the inhibition at 10 µM on Human 11β-HSD1 [2] is greater than 60%; on Human 11β-HSD1 [3], 20 to 60%.

Turning to `O=C(C[S+]([O-])Cc1ccc(Cl)cc1)C12CC3CC(CC(C3)C1)C2` (stereo not shown) [compound 1628], the inhibition at 10 µM at Human 11β-HSD1 [2] and on Human 11β-HSD1 [3] was greater than 60% in each case.

In the case of `O=C(CS(=O)(=O)Cc1ccc(Cl)cc1)C12CC3CC(CC(C3)C1)C2` [compound 1632], the inhibition at 10 µM at Human 11β-HSD1 [2] and on Human 11β-HSD1 [3] was greater than 60% in each case.
